The test system of one test is HCT116 cells. Nature of the test: Re-expression of DCR1 (qRT-PCR) in HCT116 after inhibition of DNA methyltransferases. The conditions noted are these: HCT116 (65% methylated for DCR1), 5000 nM for 3 days, p=0.005. The test is classed as cell-based, Human. A general note: Quantitative PCR measures a nucleic acid by following its amplification.
The test system of test [1] is patients with metastatic CRC. Nature of the test: CAIRO arm A: response to single agent irinotecan in second line by DCR1 methylation. The test is classed as in vivo, human. The conditions noted are these: 65 patients from arm A, data not shown.
The subject of test [2] is patients with metastatic CRC. The note with it: first-line therapy, discovery set; for HR (methylated vs unmethylated): PFS.
In test [3] the test system is patients with CRC (CAIROII). The note with it: CAIRO II patients, estimate from literature; cited from earlier work.

Results on 4 molecules are retold here after patent US20150292026A1, “METHYLATION MARKERS PREDICTIVE FOR DRUG RESPONSE” (MDxHEALTH SA, priority 2012, published 2015).

Like-named read-outs stand apart in the source and are kept apart here.

Procedure for HCT116 cells: To investigate re-expression of DCR1 after inhibition of DNA metyltransferases, HCT116 cells were treated with 5000 nM 5-aza-2′-deoxycytidine for 3 days (DAC, Sigma Chemical Co., St. Louis. Mo., USA).
Total RNA was isolated using TriZoI reagent (Invitrogen, Breda, The Netherlands), and subjected to purification using RNeasy Mini Kit (Qiagen). After DNAse treatment (RQI DNAse, Promega, Leiden, The Netherlands). cDNA was made with the Iscript cDNA Synthesis Kit (BioRad, Veenendaal, The Netherlands). Quantitative RT-PCR was done using TaqMan® Gene Expression Assays from Applied Biosystems directed to DCR1 (Hs00182570_m1) and B2M (Hs00984230_m1). Relative expression levels were determined by calculating the Ct-ratio (Ct ratio=2̂−(Ct DCR1−Ct B2M)).
Student's T-test was used for comparison of DCR1 expression levels before and after DAC and TSA treatment of HCT116.

Take `Nc1ncn([C@H]2C[C@H](O)[C@@H](CO)O2)c(=O)n1` [5-aza-2′-deoxycytidine]: the “DCR1 expression (qRT-PCR) after treatment” value with HCT116 cells is “significant increased DCR1 expression”.

In the case of `CCc1c2c(nc3ccc(OC(=O)N4CCC(N5CCCCC5)CC4)cc13)-c1cc3c(c(=O)n1C2)COC(=O)[C@]3(O)CC` [irinotecan, Irinotecan], in test [1], the “association of DCR1 methylation with response to single agent second-line therapy” value is “a similar trend was observed, although not statistically significant”.

For the molecule `CCCCCOC(=O)Nc1nc(=O)n([C@@H]2O[C@H](C)[C@@H](O)[C@H]2O)cc1F` [Capecitabine], the “HR (methylated vs unmethylated)” value turned out to be 1.1 in test [2] (BK methylation); 0.9 in test [2] (CAT methylation); 1.3 in test [2] (CCND2 methylation); 0.7 in test [2] (CDK5 methylation); 1.0 in test [2] (DAPK1 methylation); 1.4 in test [2] (DCR1 methylation). Moreover, the “HR (methylated vs unmethylated)” value in test [2] (EEF1A2 (1 assay methylation)) turned out to be 1.2; in test [2] (EEF1A2 (2 assay methylation)) it was 1.3; in test [2] (HOXA9 methylation), 0.8; in test [2] (IRAK1 methylation) it was 1.6; in test [2] (LIG4 methylation) it was 1.2; in test [2] (NUDT1 methylation), 1.5. Further, the “HR (methylated vs unmethylated)” value in test [2] (PAX3 (1) assay methylation) is reported as 1.2; in test [2] (PAX3 (2) assay methylation) it was 1.3; in test [2] (PRKCB1 methylation) it was 1.1; in test [2] (PROK2 methylation), 0.8; in test [2] (PROP1 methylation) it was 2.0; in test [2] (PTGS2 methylation) it was 1.1. For the same molecule, the “HR (methylated vs unmethylated)” value in test [2] (RASSF1 methylation) is recorded as 1.2; in test [2] (RBBP8 methylation) it was 0.9; in test [2] (RHOB methylation), 0.7; in test [2] (SPO11 methylation) it was 1.4; in test [2] (TBX5 methylation), 2.3; in test [2] (TIPARP methylation), 0.9. Moreover, the “Median PFS” value in test [2] (BK methylated (M) tumours) was determined as 149 days; in test [2] (BK unmethylated (U) tumours), 188 days; in test [2] (CAT methylated (M) tumours) it was 116 days; in test [2] (CAT unmethylated (U) tumours) it was 190 days; in test [2] (CCND2 methylated (M) tumours), 202 days; in test [2] (CCND2 unmethylated (U) tumours), 156 days. Besides, the “Median PFS” value in test [2] (CDK5 methylated (M) tumours) is recorded as 125 days; in test [2] (CDK5 unmethylated (U) tumours), 191 days; in test [2] (DAPK1 methylated (M) tumours), 144 days; in test [2] (DAPK1 unmethylated (U) tumours), 188 days; in test [2] (DCR1 methylated (M) tumours), 184 days; in test [2] (DCR1 unmethylated (U) tumours), 178 days. Also, the “Median PFS” value in test [2] (EEF1A2 (1 assay methylated (M) tumours)) turned out to be 202 days; in test [2] (EEF1A2 (1 assay unmethylated (U) tumours)) it was 168 days; in test [2] (EEF1A2 (2 assay methylated (M) tumours)), 246 days; in test [2] (EEF1A2 (2 assay unmethylated (U) tumours)), 177 days; in test [2] (HOXA9 methylated (M) tumours), 168 days; in test [2] (HOXA9 unmethylated (U) tumours), 191 days. The “Median PFS” value was 216 days in test [2] (IRAK1 methylated (M) tumours); 130 days in test [2] (IRAK1 unmethylated (U) tumours); 173 days in test [2] (LIG4 methylated (M) tumours); 190 days in test [2] (LIG4 unmethylated (U) tumours); 187 days in test [2] (NUDT1 methylated (M) tumours); 99 days in test [2] (NUDT1 unmethylated (U) tumours). For the same molecule, the “Median PFS” value came out at 189 days in test [2] (PAX3 (1) assay methylated (M) tumours); 126 days in test [2] (PAX3 (1) assay unmethylated (U) tumours); 187 days in test [2] (PAX3 (2) assay methylated (M) tumours); 127 days in test [2] (PAX3 (2) assay unmethylated (U) tumours); 192 days in test [2] (PRKCB1 methylated (M) tumours); 168 days in test [2] (PRKCB1 unmethylated (U) tumours). Also, the “Median PFS” value was 182 days in test [2] (PROK2 methylated (M) tumours); 179 days in test [2] (PROK2 unmethylated (U) tumours); 188 days in test [2] (PROP1 methylated (M) tumours); 99 days in test [2] (PROP1 unmethylated (U) tumours); 202 days in test [2] (PTGS2 methylated (M) tumours); 168 days in test [2] (PTGS2 unmethylated (U) tumours). Also, the “Median PFS” value in test [2] (RASSF1 methylated (M) tumours) came to 209 days; in test [2] (RASSF1 unmethylated (U) tumours), 164 days; in test [2] (RBBP8 methylated (M) tumours) it was 191 days; in test [2] (RBBP8 unmethylated (U) tumours), 177 days; in test [2] (RHOB methylated (M) tumours), 112 days; in test [2] (RHOB unmethylated (U) tumours), 188 days. Also, the “Median PFS” value in test [2] (SPO11 methylated (M) tumours) is listed as 177 days; in test [2] (SPO11 unmethylated (U) tumours) it was 190 days; in test [2] (TBX5 methylated (M) tumours) it was 188 days; in test [2] (TBX5 unmethylated (U) tumours), 65 days; in test [2] (TIPARP methylated (M) tumours), 177 days; in test [2] (TIPARP unmethylated (U) tumours), 187 days.

As to “bevacuzimab: targeted therapy directed against VEGF”, in test [3], the “survival benefit from bevacizumab” value is on record as “about two”.
